Source: patent US20100324073A1, “Pyrazolo [1,5-A] Pyrimidine Compounds” (Wyeth LLC, priority 2007, published 2010)

Key:
[1] = system: ABCA1 gene; assay: Quantitative analysis of ABCA1 gene regulation in THP-1 cells; type: cell-based; details: Gene regulation by LXR (human), differentiated THP-1 cells; for EC50: 18 hrs, ABCA1 mRNA by real-time PCR; for Agonism ABCA1: LXR agonist reference at 1.0 uM as positive control
Method: III. Quantitative Analysis of ABCA1 Gene Regulation in THP-1 Cells.
The compounds of formula (I) effect on the regulation of the ABCA1 gene was evaluated using the following procedure.
Cell culture: The THP-1 monocytic cell line (ATCC # TIB-202) was obtained from American Type Culture Collection (Manassas, Va.) and cultured in RPMI 1640 medium (Gibco, Carlsbad, Calif.) containing 10% FBS, 2 mM L-glutamine, and 55 uM beta-Mercaptoethanol (BME). Cells were plated in 96-well format at a density of 7.5×10^4 in complete medium containing 50-100 ng/ml phorbal 12,13-dibutyrate (Sigma, St. Louis, Mo.) for three days to induce differentiation into adherent macrophages. Differentiated THP-1 cells were treated with test compounds or ligands dissolved in DMSO (Sigma, D-8779) in culture medium lacking phorbal ester. […] Dose response effects were measured in duplicate, in the range of 0.001 to 30 micromolar concentrations and treated cells were incubated for an additional 18 hrs prior to RNA isolation. Unstimulated cells treated with vehicle were included as negative controls on each plate. An LXR agonist reference, N-(2,2,2-trifluoro-ethyl)-N-[4-(2,2,2-trifluoro-1-hydroxy-1-trifluoromethyl-ethyl)-phenyl]-benzenesulfonamide (Schultz, Joshua R., Genes & Development (2000), 14(22), 2831-2838), was dosed at 1.0 uM and served as a positive control. In antagonist mode, the compound under study is analyzed in the presence of 150 nM GW3965, trifluoromethyl-benzyl)-(2,2-diphenyl-ethyl)-amino]-propoxy]-phenyl)-acetic acid (Collins, J. L., J. Med. Chem. (2000), 45:1963-1966.). Results of antagonist analysis are expressed as % antagonism and IC50 (in μM). RNA isolation and quantitation: Total cellular RNA was isolated from treated cells cultured in 96-well plates using PrepStation 6100 (Applied Biosystems, Foster City, Calif.), according to the manufacturer's recommendations. RNA was resuspended in ribonuclease-free water and stored at −70° C. prior to analysis. RNA concentrations were quantitated with RiboGreen test procedure, #R-11490 (Molecular Probes, Eugene, Oreg.). Gene expression analysis: Gene-specific mRNA quantitation was performed by real-time PCR with the Perkin Elmer Corp. chemistry on an ABI Prism 7700 Sequence detection system (Applied Biosystems, Foster City, Calif.) according to the manufacturer's instructions. Samples (50-100 ng) of total RNA were assayed in duplicate or triplicate in 50 ul reactions using one-step RT-PCR and the standard curve method to estimate specific mRNA concentrations. Sequences of gene-specific primer and probe sets were designed with Primer Express Software (Applied Biosystems, Foster City, Calif.). The human ABCA1 primer and probe sequences are: forward, […], reverse, […], and probe, 6FAM-[…]-TAMRA. RT and PCR reactions were performed according to PE Applied Biosystem's protocol for Taqman Gold RT-PCR or Qiagen's protocl for Quantitect probe RT-PCR. Relative levels of ABCA1 mRNA are normalized using GAPDH mRNA or 18S rRNA probe/primer sets purchased commercially (Applied Biosystems, Foster City, Calif.).
Mean, standard deviation and statistical significance of duplicate evaluations of RNA samples were assessed using ANOVA, one-way analysis of variance using SAS analysis.

[2] = molecular target: T1, human LXRα (Homo sapiens, UniProt Q13133); assay: Ligand-binding test procedure for human LXRα; details: competition with 3H T0901317, biotinylated hLXRα; read-out: hLXRa binding IC50
T1 construct: made in house; host or cells: E. coli
T1 sequence (Q13133 1-447): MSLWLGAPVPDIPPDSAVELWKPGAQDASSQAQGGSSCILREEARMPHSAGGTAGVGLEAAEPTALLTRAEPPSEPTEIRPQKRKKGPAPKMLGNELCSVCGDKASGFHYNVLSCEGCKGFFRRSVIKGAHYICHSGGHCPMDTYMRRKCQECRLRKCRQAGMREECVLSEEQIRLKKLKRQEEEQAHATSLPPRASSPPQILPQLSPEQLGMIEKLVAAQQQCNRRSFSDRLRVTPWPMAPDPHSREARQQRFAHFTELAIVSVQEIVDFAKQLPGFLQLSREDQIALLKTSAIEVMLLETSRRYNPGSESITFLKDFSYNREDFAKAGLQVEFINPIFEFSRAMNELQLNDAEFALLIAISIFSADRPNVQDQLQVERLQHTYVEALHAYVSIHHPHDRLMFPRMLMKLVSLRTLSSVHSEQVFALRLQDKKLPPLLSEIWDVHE
Method: II. Ligand-Binding Test Procedure for Human LXRα.
(§1) Buffer: 100 mM KCl, 100 mM TRIS (pH 7.4 at +4° C.), 8.6% glycerol, 0.1 mM PMSF*, 2 mM MTG*, 0.2% CHAPS (* not used in wash buffer)
Receptor source: E. coli extract from cells expressing biotinylated hLXRα. Extract was made in a similar buffer as above, but with 50 mM TRIS.
(§2) Washed streptavidin and coated flash plates with wash buffer. Diluted receptor extract to give Bmax˜4000 cpm and add to the wells. Wrapped the plates in aluminum foil and stored them at +4° C. over night.
(§3) Made a dilution series in DMSO of the test ligands. Made a 5 nM solution of the radioactive tracer in buffer. Mixed 2500 diluted tracer with 5 μl of the test ligand from each concentration of the dilution series. Washed the receptor-coated flash plates. Added 200 μl per well of the ligand/radiolabel mixture to the receptor-coated flash plates. Wrapped the plates in aluminum foil and incubate at +4° C. over night.
(§4) Aspirated wells, and wash the flashed plates. Sealed the plate. Measured the remaining radioactivity in the plate.

[3] = molecular target: T2, human LXRβ (Homo sapiens, UniProt P55055); assay: Ligand-binding test procedure for human LXRβ; details: competition with 3H T0901317, biotinylated hLXRβ; read-out: hLXRb binding IC50
T2 construct: made in house; host or cells: E. coli
T2 sequence (P55055 1-460): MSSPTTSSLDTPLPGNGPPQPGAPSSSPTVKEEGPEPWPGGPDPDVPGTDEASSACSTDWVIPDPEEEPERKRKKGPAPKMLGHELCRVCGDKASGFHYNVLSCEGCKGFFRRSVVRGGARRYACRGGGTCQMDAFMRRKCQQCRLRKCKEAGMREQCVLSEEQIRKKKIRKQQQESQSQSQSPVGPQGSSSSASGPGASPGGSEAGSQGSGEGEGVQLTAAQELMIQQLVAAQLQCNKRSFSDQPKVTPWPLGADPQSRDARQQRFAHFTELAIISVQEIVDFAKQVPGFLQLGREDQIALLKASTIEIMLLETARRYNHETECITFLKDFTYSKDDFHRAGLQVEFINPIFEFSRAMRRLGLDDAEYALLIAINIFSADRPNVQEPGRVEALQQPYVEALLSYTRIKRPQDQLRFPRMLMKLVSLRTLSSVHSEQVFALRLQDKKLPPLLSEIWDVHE
Method: I. Ligand-Binding Test Procedure for Human LXRβ.
as §1
Receptor source: E. coli extract from cells expressing biotinylated hLXRβ. Extract was made in a similar buffer as above, but with 50 mM TRIS.
as §2
as §3, with “250 μl” for “2500”
as §4

| EC50 [1] [nM] | IC50 [2] [nM] | IC50 [3] [nM] | Compound | Agonism ABCA1 [1] [%] |
| --- | --- | --- | --- | --- |
| 115 | 61.6 | 2.4 | CS(=O)(=O)c1cccc(Oc2cccc(-c3c(Cc4ccccc4)nn4c(C(F)(F)F)ccnc34)c2)c1 [Example 5, 2-benzyl-3-{3-[3-(methylsulfonyl)phenoxy]phenyl}-7-(trifluoromethyl)pyrazolo[1,5-a]pyrimidine] | 98 |
| 275 | 98.2 | 5.3 | CCS(=O)(=O)c1cccc(Oc2cccc(-c3c(Cc4ccccc4)nn4c(C(F)(F)F)ccnc34)c2)c1 [Example 6, 2-benzyl-3-(3-(3-(ethylsulfonyl)phenoxy)phenyl)-7-(trifluoromethyl)pyrazolo[1,5-a]pyrimidine] | 101 |
| 724 | 87.2 | 3.4 | O=S(=O)(CCCO)c1cccc(Oc2cccc(-c3c(Cc4ccccc4)nn4c(C(F)(F)F)ccnc34)c2)c1 [Example 7, 3-(3-(3-(2-benzyl-7-(trifluoromethyl)pyrazolo[1,5-a]pyrimidin-3-yl)phenoxy)phenylsulfonyl)propan-1-ol] | 109 |
